From patent publication EP4635500A1, “THERAPEUTIC AGENT FOR BACTERIAL INFECTION” (Sumitomo Pharma Co., Ltd., priority 2022, dated 2024)

Tests used:
53 CRE and CPE strains = assay: MICrange, MIC50, MIC80, MIC90 for 53 bacterial isolates (Example 5, Table 5); type: cell-based; conditions: 53 bacterial isolates
P. aeruginosa = assay: MIC, broth microdilution, CDC/FDA Antibiotic Resistance Isolate Bank (Example 7, Tables 10, 15); type: cell-based
[1] = 26 metallo-carbapenemase-producing P. aeruginosa strains, β-lactamase inhibitor µg/mL in parentheses
[2] = 96 strains of P. aeruginosa, β-lactamase inhibitor µg/mL in parentheses

colistin
MIC50 (53 CRE and CPE strains): 0.5 µg/mL | MIC80 (53 CRE and CPE strains): 1 µg/mL | MIC90 (53 CRE and CPE strains): 32 µg/mL | MIC against 26 metallo-carbapenemase-producing strains MIC50 (P. aeruginosa; [1]): 1 µg(mL) | MIC against 26 metallo-carbapenemase-producing strains MIC80 (P. aeruginosa; [1]): 1 µg(mL) | MIC against 26 metallo-carbapenemase-producing strains MIC90 (P. aeruginosa; [1]): 1 µg(mL) | MIC against 26 metallo-carbapenemase-producing strains MICrange (P. aeruginosa; [1]): 0.5 - 2 µg(mL) | MIC against 96 strains of P. aeruginosa MIC50 (P. aeruginosa; [2]): 1 µg(mL) | MIC against 96 strains of P. aeruginosa MIC80 (P. aeruginosa; [2]): 1 µg(mL) | MIC against 96 strains of P. aeruginosa MIC90 (P. aeruginosa; [2]): 1 µg(mL) | MIC against 96 strains of P. aeruginosa MICrange (P. aeruginosa; [2]): 0.25 - 2 µg(mL) | MIC (P. aeruginosa; P. aeruginosa KUB No. 579, AR Bank # 447): 1 µg/mL | MIC (P. aeruginosa; P. aeruginosa KUB No. 5083, AR Bank # 250): 1 µg/mL | MIC (P. aeruginosa; P. aeruginosa KUB No. 5551, AR Bank # 54): 2 µg/mL | MIC (P. aeruginosa; P. aeruginosa KUB No. 5561, AR Bank # 64): 1 µg/mL | MIC (P. aeruginosa; P. aeruginosa KUB No. 5587, AR Bank # 90): 1 µg/mL | MIC (P. aeruginosa; P. aeruginosa KUB No. 5589, AR Bank # 92): 1 µg/mL | MIC (P. aeruginosa; P. aeruginosa KUB No. 5591, AR Bank # 94): 1 µg/mL | MIC (P. aeruginosa; P. aeruginosa KUB No. 5592, AR Bank # 95): 1 µg/mL | MIC (P. aeruginosa; P. aeruginosa KUB No. 5597, AR Bank # 100): 1 µg/mL | MIC (P. aeruginosa; P. aeruginosa KUB No. 5600, AR Bank # 103): 1 µg/mL | MIC (P. aeruginosa; P. aeruginosa KUB No. 5602, AR Bank # 105): 1 µg/mL | MIC (P. aeruginosa; P. aeruginosa KUB No. 5605, AR Bank # 108): 1 µg/mL | MIC (P. aeruginosa; P. aeruginosa KUB No. 5607, AR Bank # 110): 1 µg/mL | MIC (P. aeruginosa; P. aeruginosa KUB No. 5608, AR Bank # 111): 1 µg/mL | MIC (P. aeruginosa; P. aeruginosa KUB No. 5662, AR Bank # 229): 1 µg/mL | MIC (P. aeruginosa; P. aeruginosa KUB No. 5663, AR Bank # 230): 1 µg/mL | MIC (P. aeruginosa; P. aeruginosa KUB No. 5664, AR Bank # 231): 1 µg/mL | MIC (P. aeruginosa; P. aeruginosa KUB No. 5665, AR Bank # 232): 1 µg/mL | MIC (P. aeruginosa; P. aeruginosa KUB No. 5666, AR Bank # 23): 1 µg/mL | MIC (P. aeruginosa; P. aeruginosa KUB No. 5667, AR Bank # 234): 1 µg/mL | MIC (P. aeruginosa; P. aeruginosa KUB No. 5668, AR Bank # 235): 0.5 µg/mL | MIC (P. aeruginosa; P. aeruginosa KUB No. 5669, AR Bank # 236): 1 µg/mL | MIC (P. aeruginosa; P. aeruginosa KUB No. 5670, AR Bank # 237): 0.5 µg/mL | MIC (P. aeruginosa; P. aeruginosa KUB No. 5671, AR Bank # 238): 1 µg/mL | MIC (P. aeruginosa; P. aeruginosa KUB No. 5672, AR Bank # 239): 1 µg/mL | MIC (P. aeruginosa; P. aeruginosa KUB No. 5673, AR Bank # 240): 1 µg/mL | MIC (P. aeruginosa; P. aeruginosa KUB No. 5674, AR Bank # 241): 1 µg/mL | MIC (P. aeruginosa; P. aeruginosa KUB No. 5675, AR Bank # 242): 0.5 µg/mL | MIC (P. aeruginosa; P. aeruginosa KUB No. 5676, AR Bank # 243): 1 µg/mL | MIC (P. aeruginosa; P. aeruginosa KUB No. 5677, AR Bank # 244): 1 µg/mL | MIC (P. aeruginosa; P. aeruginosa KUB No. 5678, AR Bank # 245): 1 µg/mL | MIC (P. aeruginosa; P. aeruginosa KUB No. 5679, AR Bank # 246): 0.5 µg/mL | MIC (P. aeruginosa; P. aeruginosa KUB No. 5680, AR Bank # 247): 0.5 µg/mL | MIC (P. aeruginosa; P. aeruginosa KUB No. 5681, AR Bank # 248): 1 µg/mL | MIC (P. aeruginosa; P. aeruginosa KUB No. 5682, AR Bank # 249): 0.5 µg/mL | MIC (P. aeruginosa; P. aeruginosa KUB No. 5684, AR Bank # 251): 0.5 µg/mL | MIC (P. aeruginosa; P. aeruginosa KUB No. 5685, AR Bank # 252): 1 µg/mL | MIC (P. aeruginosa; P. aeruginosa KUB No. 5686, AR Bank # 253): 1 µg/mL | MIC (P. aeruginosa; P. aeruginosa KUB No. 5687, AR Bank # 254): 1 µg/mL | MIC (P. aeruginosa; P. aeruginosa KUB No. 5688, AR Bank # 255): 1 µg/mL | MIC (P. aeruginosa; P. aeruginosa KUB No. 5689, AR Bank # 256): 0.5 µg/mL | MIC (P. aeruginosa; P. aeruginosa KUB No. 5690, AR Bank # 257): 1 µg/mL | MIC (P. aeruginosa; P. aeruginosa KUB No. 5691, AR Bank # 258): 0.5 µg/mL | MIC (P. aeruginosa; P. aeruginosa KUB No. 5692, AR Bank # 259): 1 µg/mL | MIC (P. aeruginosa; P. aeruginosa KUB No. 5693, AR Bank # 260): 1 µg/mL | MIC (P. aeruginosa; P. aeruginosa KUB No. 5694, AR Bank # 261): 1 µg/mL | MIC (P. aeruginosa; P. aeruginosa KUB No. 5695, AR Bank # 262): 1 µg/mL | MIC (P. aeruginosa; P. aeruginosa KUB No. 5696, AR Bank # 263): 0.5 µg/mL | MIC (P. aeruginosa; P. aeruginosa KUB No. 5697, AR Bank # 264): 1 µg/mL | MIC (P. aeruginosa; P. aeruginosa KUB No. 5698, AR Bank # 265): 1 µg/mL | MIC (P. aeruginosa; P. aeruginosa KUB No. 5699, AR Bank # 266): 1 µg/mL | MIC (P. aeruginosa; P. aeruginosa KUB No. 5700, AR Bank # 267): 1 µg/mL | MIC (P. aeruginosa; P. aeruginosa KUB No. 5701, AR Bank # 268): 1 µg/mL | MIC (P. aeruginosa; P. aeruginosa KUB No. 5702, AR Bank # 269): 1 µg/mL | MIC (P. aeruginosa; P. aeruginosa KUB No. 5703, AR Bank # 270): 1 µg/mL | MIC (P. aeruginosa; P. aeruginosa KUB No. 5704, AR Bank # 271): 1 µg/mL | MIC (P. aeruginosa; P. aeruginosa KUB No. 5705, AR Bank # 272): 1 µg/mL | MIC (P. aeruginosa; P. aeruginosa KUB No. 5747, AR Bank # 351): 1 µg/mL | MIC (P. aeruginosa; P. aeruginosa KUB No. 5748, AR Bank # 352): 0.5 µg/mL | MIC (P. aeruginosa; P. aeruginosa KUB No. 5749, AR Bank # 353): 0.5 µg/mL | MIC (P. aeruginosa; P. aeruginosa KUB No. 5750, AR Bank # 354): 1 µg/mL | MIC (P. aeruginosa; P. aeruginosa KUB No. 5751, AR Bank # 355): 1 µg/mL | MIC (P. aeruginosa; P. aeruginosa KUB No. 5752, AR Bank # 356): 0.5 µg/mL | MIC (P. aeruginosa; P. aeruginosa KUB No. 5753, AR Bank # 357): 1 µg/mL | MIC (P. aeruginosa; P. aeruginosa KUB No. 5754, AR Bank # 358): 1 µg/mL | MIC (P. aeruginosa; P. aeruginosa KUB No. 5755, AR Bank # 359): 1 µg/mL | MIC (P. aeruginosa; P. aeruginosa KUB No. 5756, AR Bank # 360): 1 µg/mL | MIC (P. aeruginosa; P. aeruginosa KUB No. 5785, AR Bank # 439): 0.5 µg/mL | MIC (P. aeruginosa; P. aeruginosa KUB No. 5786, AR Bank # 440): 1 µg/mL | MIC (P. aeruginosa; P. aeruginosa KUB No. 5787, AR Bank # 441): 0.5 µg/mL | MIC (P. aeruginosa; P. aeruginosa KUB No. 5788, AR Bank # 443): 1 µg/mL | MIC (P. aeruginosa; P. aeruginosa KUB No. 5789, AR Bank # 444): 1 µg/mL | MIC (P. aeruginosa; P. aeruginosa KUB No. 5790, AR Bank # 445): 1 µg/mL | MIC (P. aeruginosa; P. aeruginosa KUB No. 5793, AR Bank # 449): 1 µg/mL | MIC (P. aeruginosa; P. aeruginosa KUB No. 5798, AR Bank # 455): 0.25 µg/mL | MIC (P. aeruginosa; P. aeruginosa KUB No. 5799, AR Bank # 456): 1 µg/mL | MIC (P. aeruginosa; P. aeruginosa KUB No. 5800, AR Bank # 457): 0.5 µg/mL | MIC (P. aeruginosa; P. aeruginosa KUB No. 5801, AR Bank # 458): 0.5 µg/mL | MIC (P. aeruginosa; P. aeruginosa KUB No. 5802, AR Bank # 459): 0.5 µg/mL | MIC (P. aeruginosa; P. aeruginosa KUB No. 5804, AR Bank # 862): 1 µg/mL | MIC (P. aeruginosa; P. aeruginosa KUB No. 5805, AR Bank # 863): 1 µg/mL | MIC (P. aeruginosa; P. aeruginosa KUB No. 5806, AR Bank # 864): 1 µg/mL | MIC (P. aeruginosa; P. aeruginosa KUB No. 5813, AR Bank # 508): 0.0005 µg/mL | MIC (P. aeruginosa; P. aeruginosa KUB No. 5814, AR Bank # 509): 0.001 µg/mL | MIC (P. aeruginosa; P. aeruginosa KUB No. 5815, AR Bank # 510): 0.0005 µg/mL | MIC (P. aeruginosa; P. aeruginosa KUB No. 5816, AR Bank # 511): 0.0005 µg/mL | MIC (P. aeruginosa; P. aeruginosa KUB No. 5817, AR Bank # 512): 0.001 µg/mL | MIC (P. aeruginosa; P. aeruginosa KUB No. 5818, AR Bank # 513): 0.001 µg/mL | MIC (P. aeruginosa; P. aeruginosa KUB No. 5819, AR Bank # 514): 0.001 µg/mL | MIC (P. aeruginosa; P. aeruginosa KUB No. 5820, AR Bank # 515): 0.001 µg/mL | MIC (P. aeruginosa; P. aeruginosa KUB No. 5821, AR Bank # 516): 0.001 µg/mL | MIC (P. aeruginosa; P. aeruginosa KUB No. 5823, AR Bank # 518): 0.001 µg/mL | MIC (P. aeruginosa; P. aeruginosa KUB No. 5831, AR Bank # 526): 0.001 µg/mL | MIC (P. aeruginosa; P. aeruginosa KUB No. 5832, AR Bank # 527): 0.0005 µg/mL | MIC (P. aeruginosa; P. aeruginosa KUB No. 5833, AR Bank # 528): 0.001 µg/mL | MIC (P. aeruginosa; P. aeruginosa KUB No. 5834, AR Bank # 529): 0.001 µg/mL
